Here are results for one compound from patent US8207229B1, “Preparation of hydroquinone amide compounds with antioxidant properties” (Catalys SAS, priority 2008, dated 2012).

Assay [1] in a line: Inhibiting effect of free radicals: absorbance at 516 nm in the presence of radical diphenyl picryl hydrazide (XI). The assay is classed as biochemical. The settings on record: ethanolic solution, 200 micromoles per liter compound, 100 micromoles per liter radical (XI), stirred 30 minutes at 20° C., 1-cm vessel. On the procedure:
The antioxidant potential in solution of the compounds (I) is evaluated by measuring their reaction with the free radical diphenyl-picryl-hydrazide (XI) per C. T. Ho, S. Agric. Food Chem. 1999, p. 3975, using methyl gallate as a reference (XII).
The inhibiting effect of free radicals claimed for compounds (Ia) and (Ib) obtained in a pure state was evaluated by measuring their absorbance in UV spectrophotometry at 516 nanometers in the presence of radical diphenyl picryl hydrazide (XI).
We prepared ethanolic solutions containing 200 micromoles per liter of the compound to be tested and 100 micromoles per liter of radical (XI), stirred for 30 minutes at 20° C. and placed in a 1-cm long vessel, and we measured the absorbances.

Assay [2] can be described thus: Assay of the free radical scavenging activity: addition of radical (XI) solution until purple color, absorbance at 516 nm. The assay is classed as biochemical. The source says: b) Assay of the free radical scavenging activity of amides (Ia) and (Ib):
Under absorbance measurement conditions of 516 nanometers, we placed 2 micromoles of reference or substrate (Ia) and (Ib) under the UV cell.
We introduced a solution of 200 micromoles of radical (XI) until the purple color characteristic of the radical and measured the absorbance of the medium: […]

For the compound `COC(=O)c1cc(O)c(O)c(O)c1` [Methyl gallate, methyl gallate], the “Absorbance at 516 nm” value in assay [1] is listed as 0.06; in assay [2] (absorbance of the medium after addition of radical (XI) until purple color, 2 micromoles of substrate) it was 0.34. For the same compound, the “(XI) consumed” value in assay [2] (2 micromoles of reference or substrate, solution of 200 micromoles of radical (XI) introduced until purple color) was found to be 27.7 mL.
